Patent US12577273B2, “Small molecule modulators of gut bacterial bile acid metabolism” (priority 2019, dated 2026)
“And” between values parts separate entries of the source, which are not always exact repeats. Equal entries are not always repeated. “Also recorded” adds a separate entry of the source.

Experiments:
B. theta = test: Inhibitor screen in bacteria, B. theta culture; assay type: cell-based, Bacteroides thetaiotaomicron VPI-5482; details: FIG. 2c, 100 μM inhibitor, 21 h, replicates 1-3
Experimental: (§1) Bacterial Culturing. All bacterial strains were cultured at 37° C. in Cullen-Haiser Gut (CHG) media (which consists of brain heart infusion media (Bacto™ BHI, BD) supplemented with 1% BBL vitamin K1-hemin solution (BD), 1% trace minerals solution (ATCC), 1% trace vitamins solution (ATCC), 5% fetal bovine serum (Hyclone), 1 g/L cellubiose, 1 g/L maltose, and 1 g/L fructose) or BHI^+ (Bacto™ BHI, BD, supplemented with 5 mg/L hemin, and 2.5 uL/L Vitamin K1). All strains were grown under anaerobic conditions in a anaerobic chamber (Coy Lab Products Airlock) with a gas mix of 5% hydrogen and 20% carbon dioxide nitrogen. Escherichia coli was grown aerobically at 37° C. in LB medium supplemented with ampicillin to select for the pET21b plasmid.
(§2) Inhibitor Screen in Bacteria. Bacterial cultures were diluted to OD600 of 0.1 in 4 mL BHI^+, containing 100 μM taurine conjugated bile acid pool 100 μM inhibitors. […] After 21 h, serial dilutions were plated on BHI^+ agar to determine cell viability (CFU/mL). […] The cultures were spun down in a centrifuge at 2,500 g for 5 mins to obtain better separation. The organic layer was then removed and the aqueous layer was extracted again using 2 mL of ethyl acetate.

B. fragilis = test: Inhibitor screen in bacteria, B. fragilis culture; assay type: cell-based, Bacteroides fragilis ATCC 25285; details: FIG. 2c, 100 μM inhibitor, 100 μM bile acid pool, 21 h, replicates 1-3
Experimental: as §1, §2

B. vulgatus = test: Inhibitor screen in bacteria, B. vulgatus culture; assay type: cell-based, Bacteroides vulgatus ATCC 8482; details: FIG. 2c, 100 μM inhibitor, 100 μM bile acid pool, 21 h, replicates 1-3
Experimental: as §1, §2

L. plantarum = test: Inhibitor screen in bacteria, L. plantarum culture; assay type: cell-based, Lactobacillus plantarum WCFS1
C. perfingens = assay type: cell-based, Clostridium perfringens ATCC 13124; details: FIG. 2c, C. perfingens culture; 100 μM inhibitor, 100 μM bile acid pool, 21 h; replicates 1-3
B. adolescentis = test: Inhibitor screen in bacteria, B. adolescentis culture; assay type: cell-based, Bifidobacterium adolescentis L2-32; details: FIG. 2c, 100 μM inhibitor, 100 μM bile acid pool, 21 h, replicates 1-3
[1] = tested on: three Gram negative and three Gram positive strains of human gut bacteria; test: BSH inhibition in growing cultures of six gut bacterial strains (overall statements); assay type: cell-based; details: 100 μM inhibitor, 100 μM conjugated bile acid mixture
[2] = tested on: BSH activity in conventional mouse feces; test: Screen of inhibitors in conventional mouse feces; assay type: biochemical
Experimental: Screen of Inhibitors in Conventional Mouse Feces. […] The tubes were then frozen in dry ice for 5 mins and upon thawing were diluted with an equal volume of methanol. […] The supernatant was removed into a clean eppendorf tube and centrifuged again. […] The concentration of product detected from these assays was reported directly.

B. theta BSH KO strain = test: Incubation with BSH-deleted B. theta strain; details: 100 μM inhibitor
B. theta BSH = B. theta BSH (Bacteroides thetaiotaomicron, UniProt Q8A600); test: Inhibitor screen using rBSH, B. theta BSH (UPLC-MS % deconjugation); details: 100 μM inhibitor, 30 min preincubation, monitored over 21 hours
[3] = tested on: three Gram negative and three Gram positive strains of human gut bacteria; test: Growth (OD600) and cell viability (CFU/mL) of the six gut bacterial strains; details: 100 μM inhibitor
B. longum BSH = target: T1, B. longum BSH (Bifidobacterium longum, UniProt Q9KK62); test: Inhibitor screen using rBSH, B. longum BSH (UPLC-MS % deconjugation); assay type: biochemical, Bifidobacterium longum SBT2928; set-up: His6 (C); made in house; host or cells: Escherichia coli (as for the B. theta enzyme); details: 100 μM inhibitor; 2 h, 5 h and 21 h timepoints
T1 sequence (Q9KK62 1-317): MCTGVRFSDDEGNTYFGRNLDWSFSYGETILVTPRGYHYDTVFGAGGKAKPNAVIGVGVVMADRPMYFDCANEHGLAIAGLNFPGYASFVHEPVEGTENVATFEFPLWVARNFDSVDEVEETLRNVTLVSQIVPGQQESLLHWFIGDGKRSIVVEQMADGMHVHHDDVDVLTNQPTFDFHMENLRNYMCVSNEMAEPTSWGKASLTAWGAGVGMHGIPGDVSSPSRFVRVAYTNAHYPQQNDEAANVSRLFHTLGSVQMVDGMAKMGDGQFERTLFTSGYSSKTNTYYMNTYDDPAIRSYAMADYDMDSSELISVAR
Experimental: B. longum rBSH. Recombinant BSH from B. longum SBT2928 was expressed and purified as above, except 0.25 mM IPTG was used for protein expression and 1 mM TCEP for protein purification.
Inhibitor Screen Using rBSHs.

[4] = FIG. 2c, L. plantarum culture, 100 μM inhibitor, 100 μM bile acid pool, 21 h, replicates 1-3

O=C(/C=C/c1ccc(O)c(O)c1)OCCc1ccccc1 [CAPE, caffeic acid phenethyl ester, reference compound]
% deconjugation of TDCA (B. theta; 100 μM bile acid pool): 2.06% and 0.90% and 0.81% | % deconjugation of TUDCA (B. theta; 100 μM bile acid pool): 2.31% and 5.36% and 2.32% | % deconjugation of TβMCA (B. theta; 100 μM bile acid pool): 0.64% and 0.28% and 0.16% | % deconjugation of TCA (B. theta; 100 μM taurine conjugated bile acid pool): 0.42% and 0.72% and 0.52% | % deconjugation of TCA (B. fragilis): 88.33% and 85.35% and 84.93% | % deconjugation of TDCA (B. fragilis): 98.95% and 98.93% and 99.13% | % deconjugation of TUDCA (B. fragilis): 98.66% and 98.65% and 99.13% | % deconjugation of TβMCA (B. fragilis): 98.64% and 98.42% and 99.12% | % deconjugation of TCA (B. vulgatus): 1.46% and 1.06% and 0.00% | % deconjugation of TDCA (B. vulgatus): 5.47% and 3.03% and 1.28% | % deconjugation of TUDCA (B. vulgatus): 82.37% and 94.25% and 87.91% | % deconjugation of TβMCA (B. vulgatus): 88.92% and 78.15% and 71.86% | inhibition of deconjugation in L. plantarum (in words) (L. plantarum; 100 μM CAPE): inhibit deconjugation in L. plantarum | % deconjugation of TCA (L. plantarum; [4]): 10.67% and 33.19% and 53.29% | % deconjugation of TDCA (L. plantarum; [4]): 47.57% and 82.98% and 93.57% | % deconjugation of TUDCA (L. plantarum; [4]): 6.80% and 1.73% and 3.54% | % deconjugation of TβMCA (L. plantarum; [4]): 0.06% and 0.59% and 0.95% | % deconjugation of TCA (C. perfingens): 100.00% | % deconjugation of TDCA (C. perfingens): 99.71% and 99.30% and 99.38% | % deconjugation of TUDCA (C. perfingens): 98.92% and 98.62% and 98.71% | % deconjugation of TβMCA (C. perfingens): 100.00% | % deconjugation of TCA (B. adolescentis): 100.00% | % deconjugation of TDCA (B. adolescentis): 99.85% and 100.00% and 99.71% | % deconjugation of TUDCA (B. adolescentis): 99.43% (2×) and 100.00% | % deconjugation of TβMCA (B. adolescentis): 100.00% | deconjugation / BSH inhibition in cultures of the six bacterial strains (in words) [1]: no inhibition of deconjugation was observed over the course of 21 hours in five out of the six bacterial strains; also recorded: neither riboflavin nor CAPE displayed significant inhibitory activity against any of the Gram negative strains; also recorded: No BSH inhibition in five out of the six bacterial strains | BSH activity in resuspended conventional mouse feces (in words) ([2]; 20 μM inhibitor, 30 min, then GCDCA-d4 100 μM, 18 hours): minimal inhibitory activity; also recorded: no inhibition of BSH activity in feces | deconjugation in resuspended mouse feces (in words) ([2]; either 20 μM or 100 μM): did not noticeably reduce deconjugation | bactericidal effect on BSH-deleted B. theta (CFUs after 24 h) (B. theta BSH KO strain): significantly affect the growth | inhibition of B. theta BSH (in words) (B. theta BSH): only moderate inhibition | effect on bacterial cell viability (CFU/mL, plated at 21 h) [3]: decreased the cell viability of the Gram negative strains tested; also recorded: inhibited the cell viability of all three Gram negative bacterial strains tested | effect on bacterial growth (OD600 at 24 hours) [3]: inhibited the growth of the Gram positive strains tested; also recorded: inhibited the growth of all three Gram negative bacterial strains tested; also recorded: significantly inhibits the growth of the strains of Gram negative gut bacteria tested | inhibition of B. longum BSH (in words) (B. longum BSH): ineffective
